Laboratory results published in patent US12060400B2, “Peptides for use in immunotherapy against cancers” (Immatics Biotechnologies GmbH, priority 2018, dated 2024).

test system: HLA-A*24; test: MHC binding assay: UV-ligand exchange with beta2m ELISA (peptide exchange yield); set-up: species or system human; details: Table 11, binding to HLA-A*24, UV-ligand exchange
Method in brief: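 Peptide-MHC complexes generated by UV-induced exchange of a photocleavable ligand with the test peptide; exchange yield quantified by streptavidin-capture ELISA detecting β2m (HRP anti-β2m, TMB, A450). Samples diluted 100-fold, with refolded HLA-A*02:01/MLA-001 monomers (15-500 ng/ml) as standards.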

Row | Substance | Peptide exchange (MHC class I binding score, peptide exchange yield)
1 | 148 (MLPQIPFLLL; listed as Homo sapiens) [compound 148] | ++ (>20% = ++)
2 | 149 (TQFFIPYTI; listed as Homo sapiens) [compound 149] | ++ (>20% = ++)
3 | 244 (TYIDTRTVFL; listed as Homo sapiens) [compound 244] | ++++ (>75% = ++++)
4 | 360 (LYITKVTTI; listed as Homo sapiens) [compound 360] | ++++ (>75% = ++++)
5 | 295 (KYNRQSMTL; listed as Homo sapiens) [compound 295] | ++++ (>75% = ++++)
6 | 258 (VCWNPFNNTF; listed as Homo sapiens) [compound 258] | +++ (>50 = +++)
7 | 141 (QYAAAITNGL; listed as Homo sapiens) [compound 141] | +++ (>50 = +++)
8 | 259 (FFLFIPFF; listed as Homo sapiens) [compound 259] | ++ (>20% = ++)
9 | 302 (YQGSLEVLF; listed as Homo sapiens) [compound 302] | ++ (>20% = ++)
10 | 160 (YIANLISCF; listed as Homo sapiens) [compound 160] | ++ (>20% = ++)
11 | 203 (VYPSESTVM; listed as Homo sapiens) [compound 203] | ++ (>20% = ++)
12 | 158 (SYLKDPMIV; listed as Homo sapiens) [compound 158] | +++ (>50 = +++)
13 | 292 (KMFPKDFRF; listed as Homo sapiens) [compound 292] | ++ (>20% = ++)
14 | 232 (IWPGFTTSI; listed as Homo sapiens) [compound 232] | ++++ (>75% = ++++)
15 | 55 (AVLRHLETF; listed as Homo sapiens) [compound 55] | ++ (>20% = ++)
16 | 74 (NYVLVPTMF; listed as Homo sapiens) [compound 74] | ++++ (>75% = ++++)
17 | 282 (ASYQQSTSSFF; listed as Homo sapiens) [compound 282] | ++ (>20% = ++)
18 | 123 (FFLQESPVF; listed as Homo sapiens) [compound 123] | ++++ (>75% = ++++)
19 | 346 (TYIDFVPYI; listed as Homo sapiens) [compound 346] | ++++ (>75% = ++++)
20 | 272 (IYFNHRCF; listed as Homo sapiens) [compound 272] | +++ (>50 = +++)
21 | 297 (LKSPRLFTF; listed as Homo sapiens) [compound 297] | ++ (>20% = ++)

Row | Substance | Peptide exchange (MHC class I binding score, peptide exchange yield)
22 | 341 (RYENVSILF; listed as Homo sapiens) [compound 341] | ++++ (>75% = ++++)
23 | 356 (YSLEHLTQF; listed as Homo sapiens) [compound 356] | ++ (>20% = ++)
24 | 41 (IYFATQVVF; listed as Homo sapiens) [compound 41] | ++++ (>75% = ++++)
25 | 318 (VQADAKLLF; listed as Homo sapiens) [compound 318] | + (>10% = +)
26 | 224 (AYLQFLSVL; listed as Homo sapiens) [compound 224] | ++++ (>75% = ++++)
27 | 144 (LFDHGGTVFF; listed as Homo sapiens) [compound 144] | +++ (>50 = +++)
28 | 121 (RRYFGEKVAL; listed as Homo sapiens) [compound 121] | ++ (>20% = ++)
29 | 240 (RVHANPLLI; listed as Homo sapiens) [compound 240] | + (>10% = +)
30 | 269 (FSFSTSMNEF; listed as Homo sapiens) [compound 269] | ++ (>20% = ++)
31 | 103 (EMFFSPQVF; listed as Homo sapiens) [compound 103] | ++ (>20% = ++)
32 | 296 (YQRPDLLLF; listed as Homo sapiens) [compound 296] | ++ (>20% = ++)
33 | 322 (SFISPRYSWLF; listed as Homo sapiens) [compound 322] | ++++ (>75% = ++++)
34 | 251 (DYLLSWLLF; listed as Homo sapiens) [compound 251] | ++++ (>75% = ++++)
35 | 222 (HYHAESFLF; listed as Homo sapiens) [compound 222] | ++++ (>75% = ++++)
36 | 73 (YFCSTKGQLF; listed as Homo sapiens) [compound 73] | ++++ (>75% = ++++)
37 | 104 (GYGLTRVQPF; listed as Homo sapiens) [compound 104] | ++ (>20% = ++)
38 | 289 (RTLNEIYHW; listed as Homo sapiens) [compound 289] | ++ (>20% = ++)
39 | 136 (YLKSVQLF; listed as Homo sapiens) [compound 136] | ++ (>20% = ++)
40 | 281 (MDQNQVVWTF; listed as Homo sapiens) [compound 281] | +++ (>50 = +++)
41 | 298 (TYETVMTFF; listed as Homo sapiens) [compound 298] | ++++ (>75% = ++++)
42 | 367 (HWSHITHLF; listed as Homo sapiens) [compound 367] | ++++ (>75% = ++++)

Row | Substance | Peptide exchange (MHC class I binding score, peptide exchange yield)
43 | 231 (KYSVAFYSLD; listed as Homo sapiens) [compound 231] | ++ (>20% = ++)
44 | 168 (LSSPVHLDF; listed as Homo sapiens) [compound 168] | ++++ (>75% = ++++)
45 | 294 (KMGRIVDYF; listed as Homo sapiens) [compound 294] | ++++ (>75% = ++++)
46 | 98 (LQIPVSPSF; listed as Homo sapiens) [compound 98] | + (>10% = +)
47 | 167 (LQPPWTTVF; listed as Homo sapiens) [compound 167] | ++ (>20% = ++)
48 | 252 (RYLIIKYPF; listed as Homo sapiens) [compound 252] | +++ (>50 = +++)
49 | 11 (RAMCAMMSF; listed as Homo sapiens) [compound 11] | ++ (>20% = ++)
50 | 101 (VYAVSSDRF; listed as Homo sapiens) [compound 101] | ++++ (>75% = ++++)
51 | 142 (PYWWNANMVF; listed as Homo sapiens) [compound 142] | ++++ (>75% = ++++)
52 | 31 (KQMQEFFGL; listed as Homo sapiens) [compound 31] | +++ (>50 = +++)
53 | 17 (IYPEAIATL; listed as Homo sapiens) [compound 17] | ++++ (>75% = ++++)
54 | 327 (KWKPSPLLF; listed as Homo sapiens) [compound 327] | ++++ (>75% = ++++)
55 | 334 (KVFGSFLTL; listed as Homo sapiens) [compound 334] | ++ (>20% = ++)
56 | 331 (EYIDEFQSL; listed as Homo sapiens) [compound 331] | ++++ (>75% = ++++)
57 | 33 (FYQPDLKYLSF; listed as Homo sapiens) [compound 33] | ++++ (>75% = ++++)
58 | 116 (TYFFVANKY; listed as Homo sapiens) [compound 116] | + (>10% = +)
59 | 75 (VYEHNHVSL; listed as Homo sapiens) [compound 75] | +++ (>50 = +++)
60 | 218 (FYFYNCSSL; listed as Homo sapiens) [compound 218] | ++++ (>75% = ++++)
61 | 463 (VGGNVTSNF; listed as Homo sapiens) [compound 463] | +++ (>50 = +++)
62 | 12 (KYMSRVLFVY; listed as Homo sapiens) [compound 12] | ++ (>20% = ++)
63 | 164 (MFQEMLQRL; listed as Homo sapiens) [compound 164] | + (>10% = +)
